Experimental data as given in patent publication US20240140991A1, “ANTIBIOTIC NATURAL PRODUCT ANALOGUES” (THE QUEEN'S UNIVERSITY OF BELFAST, priority 2021, published 2024).
In brackets after ≈: the same amount, converted by molar mass. Starred links: 1 amine or outer side, 2 acyl side, 3 side chain; linkers in the order of their positions; H or OH if unused. Non-standard residues stand in square brackets, D forms with d. Residues, ends and D or L forms follow the SMILES beside them. *: point of attachment. X1 = C[C@@H](N=[N+]=[N-])[C@H](N[*:1])C(=O)[*:2]; Octanoyl(7-Me) = CC(C)CCCCCC(=O)*; dOrn = NCCC[C@@H](N)C(=O)O; Orn = NCCC[C@H](N)C(=O)O; Dap = NC[C@H](N)C(=O)O; Alloc = C=CCOC(=O)*; OAll = C=CCO*

Each compound was assayed on Escherichia coli ATCC 25922. Conditions: ATCC 25922.
Type: cell-based
Method: Minimum inhibitory concentration (MIC) was determined by broth microdilution according to CLSI guidelines. Blood agar plates were inoculated with glycerol stocks of Escherichia coli ATCC 25922, E. coli ATCC 25922 MCR-1, E. coli MCR-1 (clinical isolate from Utrecht Medical Center, NL), E. coli EQAS MCR-2 (clinical isolate from Wageningen University and Research, NL), Kiebsielia pneumoniae ATCC 11228, K. pneumoniae ATCC 13883, K. pneumonia 2048 (clinical isolate from Vrije Universiteit Amsterdam Medical Center, NL), K. pneumonia JS-123 (clinical isolate from Utrecht Medical Center, NL), Acinetobacter baumannii ATCC 17961, A. baumannil ATCC 17978, A. baumannii 2018-006 (clinical isolate from Rijksinstituut voor Volksgezondheid en Milieu, NL), A. baumannii MDR (clinical isolate from Vrije Universiteit Amsterdam Medical Center, NL), Pseudomonas aeruginosa ATCC 27853, P. aeruginosa PAO1, P. aeruginosa NRZ-03961 (Reference strain from Das Nationale Referenzzentrum für gramnegative Krankenhauserreger, DE), P. aeruginosa M-120 (clinical isolate from Leiden University Medical Center, NL) and Staphylococcus aureus USA300 (clinical isolate from Texas Children's Hospitalm, USA). E. coli 25922 MCR1 was grown on LB agar supplemented with kanamycin. The inoculated agar plates were then incubated for 16 hours at 37° C. Individually grown colonies were subsequently used to inoculate 3 mL aliquots of TSB that were then incubated at 37° C. with shaking at 220 rpm. In parallel, the compounds to be assessed were serially diluted with Mueller-Hinton broth (MHB) in polypropylene 96-well plates (50 μL in each well). Once the OD600 of the bacterial suspensions reached 0.5, the bacteria were diluted with MHB (final concentration 2×10^5 CFU mL^−1) and added to the microplates containing the test compounds (50 μL to each well, final volume: 100 μL). The well-plates were sealed with an adhesive membrane and after 16 hours of incubation at 37° C. with shaking at 220 rpm the wells were visually inspected for bacterial growth. MIC values were defined as the lowest concentration of the compound that prevented visible growth of bacteria.

Compound	Minimum inhibitory concentration (MIC) [µg/mL]
C=CCOC(=O)CNC(=O)CNC(=O)[C@H](CC(N)=O)NC(=O)[C@@H](NC(=O)[C@H](CNC(=O)OCC=C)NC(=O)[C@H](Cc1c[nH]c2ccccc12)NC(=O)[C@@H](CCCN)NC(=O)CNC(=O)[C@H](CCCN)NC(=O)[C@@H](CCCN)NC(=O)[C@@H](Cc1c[nH]c2ccccc12)NC(=O)[C@@H](Cc1ccc(O)cc1)NC(=O)[C@@H](CO)NC(=O)CCCCCC(C)C)[C@@H](C)CC [Dap(Alloc)9-COOAll] ({Octanoyl(7-Me)}-[dS][dY][dW][dOrn][Orn]G[dOrn]W[Dap](Alloc)INGG-OAll)	2 (≈ 1.15 µM)
C=CCOC(=O)NC[C@H](NC(=O)[C@H](Cc1c[nH]c2ccccc12)NC(=O)[C@@H](CCCN)NC(=O)CNC(=O)[C@H](CCCN)NC(=O)[C@@H](CCCN)NC(=O)[C@@H](Cc1c[nH]c2ccccc12)NC(=O)[C@@H](Cc1ccc(O)cc1)NC(=O)[C@@H](CO)NC(=O)CCCCCC(C)C)C(=O)N[C@H](C(=O)N[C@@H](CC(N)=O)C(=O)NCC(=O)NCC(=O)O)[C@@H](C)CC [Dap(Alloc)9-COOH] ({Octanoyl(7-Me)}-[dS][dY][dW][dOrn][Orn]G[dOrn]W[Dap](Alloc)INGG-OH)	2 (≈ 1.18 µM)
C=CCOC(=O)NC[C@H](NC(=O)[C@H](Cc1c[nH]c2ccccc12)NC(=O)[C@@H](CCCN)NC(=O)CNC(=O)[C@H](CCCN)NC(=O)[C@@H](CCCN)NC(=O)[C@@H](Cc1c[nH]c2ccccc12)NC(=O)[C@@H](Cc1ccc(O)cc1)NC(=O)[C@@H](CO)NC(=O)CCCCCC(C)C)C(=O)N[C@H](C(=O)N[C@@H](CC(N)=O)C(=O)NCC(=O)NCC(N)=O)[C@@H](C)CC [Dap(Alloc)] ({Octanoyl(7-Me)}-[dS][dY][dW][dOrn][Orn]G[dOrn]W[Dap](Alloc)INGG-NH2)	1 to 2
CC[C@H](C)[C@H](NC(=O)[C@H](CCC(N)=O)NC(=O)[C@H](Cc1c[nH]c2ccccc12)NC(=O)[C@@H](CCCN)NC(=O)CNC(=O)[C@H](CCCN)NC(=O)[C@@H](CCCN)NC(=O)[C@@H](Cc1c[nH]c2ccccc12)NC(=O)[C@@H](Cc1ccc(O)cc1)NC(=O)[C@@H](CO)NC(=O)CCCCCC(C)C)C(=O)N[C@@H](CC(N)=O)C(=O)NCC(=O)NCC(N)=O [Gln9-CONH2] ({Octanoyl(7-Me)}-[dS][dY][dW][dOrn][Orn]G[dOrn]WQINGG-NH2)	4 (≈ 2.43 µM)
C=CCOC(=O)CC[C@H](NC(=O)[C@H](Cc1c[nH]c2ccccc12)NC(=O)[C@@H](CCCN)NC(=O)CNC(=O)[C@H](CCCN)NC(=O)[C@@H](CCCN)NC(=O)[C@@H](Cc1c[nH]c2ccccc12)NC(=O)[C@@H](Cc1ccc(O)cc1)NC(=O)[C@@H](CO)NC(=O)CCCCCC(C)C)C(=O)N[C@H](C(=O)N[C@@H](CC(N)=O)C(=O)NCC(=O)NCC(N)=O)[C@@H](C)CC [Glu(OAll)9-CONH2] ({Octanoyl(7-Me)}-[dS][dY][dW][dOrn][Orn]G[dOrn]WE(OAll)INGG-NH2)	8 (≈ 4.73 µM)
CC[C@H](C)[C@H](NC(=O)[C@H](CC(C)C)NC(=O)[C@H](Cc1c[nH]c2ccccc12)NC(=O)[C@@H](CCCN)NC(=O)CNC(=O)[C@H](CCCN)NC(=O)[C@@H](CCCN)NC(=O)[C@@H](Cc1c[nH]c2ccccc12)NC(=O)[C@@H](Cc1ccc(O)cc1)NC(=O)[C@@H](CO)NC(=O)CCCCCC(C)C)C(=O)N[C@@H](CC(N)=O)C(=O)NCC(=O)NCC(N)=O [Leu9-CONH2] ({Octanoyl(7-Me)}-[dS][dY][dW][dOrn][Orn]G[dOrn]WLINGG-NH2)	2 to 4
CC[C@H](C)[C@H](NC(=O)[C@@H](NC(=O)[C@H](Cc1c[nH]c2ccccc12)NC(=O)[C@@H](CCCN)NC(=O)CNC(=O)[C@H](CCCN)NC(=O)[C@@H](CCCN)NC(=O)[C@@H](Cc1c[nH]c2ccccc12)NC(=O)[C@@H](Cc1ccc(O)cc1)NC(=O)[C@@H](CO)NC(=O)CCCCCC(C)C)[C@@H](C)O)C(=O)N[C@@H](CC(N)=O)C(=O)NCC(=O)NCC(=O)O [Linear Laterocidine (Thr9-COOH)] ({Octanoyl(7-Me)}-[dS][dY][dW][dOrn][Orn]G[dOrn]WTINGG-OH)	4 to 8
CC[C@H](C)[C@H](NC(=O)[C@@H](NC(=O)[C@H](Cc1c[nH]c2ccccc12)NC(=O)[C@@H](CCCN)NC(=O)CNC(=O)[C@H](CCCN)NC(=O)[C@@H](CCCN)NC(=O)[C@@H](Cc1c[nH]c2ccccc12)NC(=O)[C@@H](Cc1ccc(O)cc1)NC(=O)[C@@H](CO)NC(=O)CCCCCC(C)C)[C@@H](C)N=[N+]=[N-])C(=O)N[C@@H](CC(N)=O)C(=O)NCC(=O)NCC(N)=O [MeDap(N3)9-CONH2] ({Octanoyl(7-Me)}-[dS][dY][dW][dOrn][Orn]G[dOrn]W[X1]INGG-NH2)	2 (≈ 1.21 µM)
CC[C@H](C)[C@H](NC(=O)[C@H](CCSC)NC(=O)[C@H](Cc1c[nH]c2ccccc12)NC(=O)[C@@H](CCCN)NC(=O)CNC(=O)[C@H](CCCN)NC(=O)[C@@H](CCCN)NC(=O)[C@@H](Cc1c[nH]c2ccccc12)NC(=O)[C@@H](Cc1ccc(O)cc1)NC(=O)[C@@H](CO)NC(=O)CCCCCC(C)C)C(=O)N[C@@H](CC(N)=O)C(=O)NCC(=O)NCC(N)=O [Met9-CONH2] ({Octanoyl(7-Me)}-[dS][dY][dW][dOrn][Orn]G[dOrn]WMINGG-NH2)	2 (≈ 1.21 µM)
CC[C@H](C)[C@H](NC(=O)[C@H](Cc1ccccc1)NC(=O)[C@H](Cc1c[nH]c2ccccc12)NC(=O)[C@@H](CCCN)NC(=O)CNC(=O)[C@H](CCCN)NC(=O)[C@@H](CCCN)NC(=O)[C@@H](Cc1c[nH]c2ccccc12)NC(=O)[C@@H](Cc1ccc(O)cc1)NC(=O)[C@@H](CO)NC(=O)CCCCCC(C)C)C(=O)N[C@@H](CC(N)=O)C(=O)NCC(=O)NCC(N)=O [Phe9-CONH2] ({Octanoyl(7-Me)}-[dS][dY][dW][dOrn][Orn]G[dOrn]WFINGG-NH2)	2 (≈ 1.2 µM)
CC[C@H](C)[C@H](NC(=O)[C@H](CO)NC(=O)[C@H](Cc1c[nH]c2ccccc12)NC(=O)[C@@H](CCCN)NC(=O)CNC(=O)[C@H](CCCN)NC(=O)[C@@H](CCCN)NC(=O)[C@@H](Cc1c[nH]c2ccccc12)NC(=O)[C@@H](Cc1ccc(O)cc1)NC(=O)[C@@H](CO)NC(=O)CCCCCC(C)C)C(=O)N[C@@H](CC(N)=O)C(=O)NCC(=O)NCC(N)=O [Ser9-CONH2] ({Octanoyl(7-Me)}-[dS][dY][dW][dOrn][Orn]G[dOrn]WSINGG-NH2)	2 (≈ 1.24 µM)
CC[C@H](C)[C@H](NC(=O)[C@@H](NC(=O)[C@H](Cc1c[nH]c2ccccc12)NC(=O)[C@@H](CCCN)NC(=O)CNC(=O)[C@H](CCCN)NC(=O)[C@@H](CCCN)NC(=O)[C@@H](Cc1c[nH]c2ccccc12)NC(=O)[C@@H](Cc1ccc(O)cc1)NC(=O)[C@@H](CO)NC(=O)CCCCCC(C)C)[C@@H](C)O)C(=O)N[C@@H](CC(N)=O)C(=O)NCC(=O)NCC(N)=O [Thr9-CONH2] ({Octanoyl(7-Me)}-[dS][dY][dW][dOrn][Orn]G[dOrn]WTINGG-NH2)	2 to 4
CC[C@H](C)[C@H](NC(=O)[C@@H](NC(=O)[C@H](Cc1c[nH]c2ccccc12)NC(=O)[C@@H](CCCN)NC(=O)CNC(=O)[C@H](CCCN)NC(=O)[C@@H](CCCN)NC(=O)[C@@H](Cc1c[nH]c2ccccc12)NC(=O)[C@@H](Cc1ccc(O)cc1)NC(=O)[C@@H](CO)NC(=O)CCCCCC(C)C)[C@@H](C)O)C(=O)N[C@@H](CC(N)=O)C(=O)NCC(=O)NCC(N)=O [Thr (linear laterocidine)] ({Octanoyl(7-Me)}-[dS][dY][dW][dOrn][Orn]G[dOrn]WTINGG-NH2; N-terminus and C-terminus assumed)	2 (≈ 1.23 µM)
CC[C@H](C)[C@H](NC(=O)[C@H](Cc1c[nH]c2ccccc12)NC(=O)[C@H](Cc1c[nH]c2ccccc12)NC(=O)[C@@H](CCCN)NC(=O)CNC(=O)[C@H](CCCN)NC(=O)[C@@H](CCCN)NC(=O)[C@@H](Cc1c[nH]c2ccccc12)NC(=O)[C@@H](Cc1ccc(O)cc1)NC(=O)[C@@H](CO)NC(=O)CCCCCC(C)C)C(=O)N[C@@H](CC(N)=O)C(=O)NCC(=O)NCC(N)=O [Trp9-CONH2] ({Octanoyl(7-Me)}-[dS][dY][dW][dOrn][Orn]G[dOrn]WWINGG-NH2)	4 (≈ 2.34 µM)
CC[C@H](C)[C@H](NC(=O)[C@@H](NC(=O)[C@H](Cc1c[nH]c2ccccc12)NC(=O)[C@@H](CCCN)NC(=O)CNC(=O)[C@H](CCCN)NC(=O)[C@@H](CCCN)NC(=O)[C@@H](Cc1c[nH]c2ccccc12)NC(=O)[C@@H](Cc1ccc(O)cc1)NC(=O)[C@@H](CO)NC(=O)CCCCCC(C)C)[C@@H](C)O)C(=O)N[C@@H](CC(N)=O)C(N)=O [ΔG12-G13, FA-sywoOGoWTIN-CONH2] ({Octanoyl(7-Me)}-[dS][dY][dW][dOrn][Orn]G[dOrn]WTIN-NH2)	4 (≈ 2.65 µM)
